Test results published in patent US20250144067A1, “PERSONALIZED STARVATION THERAPY FOR CANCER” (Faeth Therapeutics, Inc., priority 2021, published 2025).
Counter-ions that a name gives are not always drawn.

What was measured:
[1] = tested on: NCI-H292 lung cancer cells; experiment: FDA drug screening, complete media vs cholesterol-free media with simvastatin (TABLE 2); type: cell-based, human; details: for Cholesterol-free media + simvastatin (0.04 μM) / Complete Media: NCI-H292 cells
[2] = tested on: NCI-H292 lung cancer cells; experiment: FDA drug screening, complete media vs cholesterol-free media without statin (TABLE 1); type: cell-based, human
[3] = cholesterol-free media with simvastatin 0.04 μM, cell growth value in FDA drug screen
[4] = complete media, cell growth value in FDA drug screen
[5] = complete media minus cholesterol-free media + simvastatin, >0 enhanced anti-cancer activity, about 0 neutral, <0 antagonist
[6] = NCI-H292 cells, cholesterol-free media without statin, FDA drug library screen
[7] = NCI-H292 cells, complete media, FDA drug library screen
[8] = complete vs cholesterol-free media, >0 enhanced anti-cancer activity, about 0 neutral, <0 antagonist
[9] = cholesterol-free media with simvastatin 0.04 μM, FDA drug library screen (TABLE 2)
[10] = complete media, FDA drug library screen (TABLE 2)
[11] = complete media minus cholesterol-free media + simvastatin (0.04 μM), >0 enhanced anti-cancer activity, about 0 neutral, <0 antagonist
[12] = Complete minus Cholesterol-free, greater than 0 enhanced anti-cancer activity, about 0 neutral, below 0 antagonist
[13] = NCI-H292 cells, FDA drug library screen, cholesterol-free media without statin
[14] = NCI-H292 cells, FDA drug library screen, complete media
[15] = Complete minus Cholesterol-free, >0 enhanced anti-cancer activity, about 0 neutral, <0 antagonist
[16] = FDA drug library screen, cholesterol-free media with simvastatin 0.04 μM
[17] = FDA drug library screen, complete media
[18] = NCI-H292 cells, cholesterol-free media without statin
[19] = FDA library drug in cholesterol-free media with simvastatin 0.04 μM
[20] = FDA library drug in complete media
[21] = complete media vs cholesterol-free media + simvastatin (0.04 μM), >0 enhanced anti-cancer activity, about 0 neutral, <0 antagonist
[22] = Complete minus Cholesterol-free, greater than 0 enhanced anti-cancer activity, about 0 neutral, below 0 antagonists
[23] = NCI-H292 cells in cholesterol-free media without statin
[24] = NCI-H292 cells in complete media
[25] = complete vs cholesterol-free media, greater than 0 enhanced anti-cancer activity, about 0 neutral, below 0 antagonists
[26] = drug in cholesterol-free media with simvastatin 0.04 μM

Row | Compound | Difference [1, 5] | Cholesterol-free [2, 6] | Complete [2, 7] | Difference [2, 15] | Cholesterol-free media + simvastatin (0.04 μM) [1, 16] | Complete Media [1, 17] | Cholesterol-free [2, 18] | Complete ([2]; NCI-H292 cells, complete media) | further results
1 | C[C@@H](Oc1cc(-c2cnn(C3CCNCC3)c2)cnc1N)c1c(Cl)ccc(F)c1Cl [Crizotinib (hydrochloride)] | 0.03 | 0.1813 | 0.2796 | – | – | – | – | – | Cholesterol-free media + simvastatin (0.04 μM) [1, 3]: 0.4168; Complete Media [1, 4]: 0.4474; Difference [2, 8]: 0.10
2 | CC/C(=C(/CC)c1ccc(O)cc1)c1ccc(O)cc1 [Diethylstilbestrol] | 0.10 | 0.5644 | 0.9798 | – | – | – | – | – | Cholesterol-free media + simvastatin (0.04 μM) [1, 3]: 0.993; Complete Media [1, 4]: 1.095; Difference [2, 8]: 0.42
3 | O=C(O)C[C@H](O)C[C@H](O)/C=C/c1c(C2CC2)nc2ccccc2c1-c1ccc(F)cc1 [Pitavastatin (Calcium)] | – | – | – | – | – | – | – | – | Cholesterol-free media + simvastatin (0.04 μM) [1, 9]: 0.4883; Complete Media [1, 10]: 0.4437; Difference [1, 11]: −0.04; Difference [2, 12]: −0.07; Cholesterol-free [2, 13]: 0.4408; Complete [2, 14]: 0.3693
4 | Cc1nc(C(=O)NCC(=O)O)c(O)c2ccc(Oc3ccccc3)cc12 [Roxadustat] | 0.13 | – | – | – | – | – | – | – | Cholesterol-free media + simvastatin (0.04 μM) [1, 3]: 1.201; Complete Media [1, 4]: 1.327; Difference [2, 12]: −0.11; Cholesterol-free [2, 13]: 1.074; Complete [2, 14]: 0.9662
5 | CC(C)C[C@H](NC(=O)[C@H](Cc1ccccc1)NC(=O)c1cnccn1)B(O)O [Bortezomib] | – | 0.006863 | 0.00697 | 0.00 | – | – | – | – | Cholesterol-free media + simvastatin (0.04 μM) [1, 9]: 0.003233; Complete Media [1, 10]: −0.017; Difference [1, 11]: −0.02
6 | Cc1cn[nH]c1 [Fomepizole] | 0.26 | – | – | −0.26 | 0.8562 | 1.121 | 1.239 | 0.9771 | –
7 | COc1cc(NS(=O)(=O)c2ccc(N)cc2)ncn1 [Sulfamonomethoxine] | – | – | – | – | – | – | – | – | Cholesterol-free media + simvastatin (0.04 μM) [1, 19]: 1.013; Complete Media [1, 20]: 0.7465; Difference [1, 21]: −0.27; Difference [2, 22]: −0.48; Cholesterol-free [2, 23]: 1.378; Complete [2, 24]: 0.8971
8 | Cc1cccc(C)c1NC(=O)C1CCCCN1C (centres unmarked) [Mepivacaine (hydrochloride)] | 0.14 | – | – | – | 1.253 | 1.396 | – | – | Difference [2, 22]: −0.61; Cholesterol-free [2, 23]: 1.413; Complete [2, 24]: 0.805
9 | CC(=O)NCCCS(=O)(=O)O [Acamprosate (calcium)] | – | 1.751 | 1.779 | – | – | – | – | – | Cholesterol-free media + simvastatin (0.04 μM) [1, 9]: 1.34; Complete Media [1, 10]: 1.328; Difference ([1]; complete media minus cholesterol-free media + simvastatin (0.04 μM), […]): −0.01; Difference ([2]; Complete minus Cholesterol-free, […]): 0.03
10 | C[C@H]1Oc2cc(cnc2N)-c2c(nn(C)c2C#N)CN(C)C(=O)c2ccc(F)cc21 [Lorlatinib] | 0.20 | – | – | – | 0.9476 | – | 1.143 | 0.8052 | Difference [2, 25]: −0.34
11 | Pefloxacin (mesylate) | – | – | – | – | – | – | 1.183 | 0.8627 | Cholesterol-free media + simvastatin (0.04 μM) [1, 26]: 1.02; Complete Media ([1]; drug in complete media): 0.8577; Difference [1, 21]: −0.16; Difference [2, 25]: −0.32
12 | Dabrafenib (Mesylate) | – | 0.4044 | 0.6337 | – | 0.4336 | 0.6478 | – | – | Difference ([1]; complete media minus cholesterol-free media + simvastatin, […]): 0.21; Difference ([2]; complete vs cholesterol-free media, […]): 0.23
13 | Sc1ncnc2nc[nH]c12 [6-Mercaptopurine] | – | – | – | −0.28 | 1.121 | 0.9807 | 0.7087 | 0.4285 | Difference [1, 21]: −0.14
14 | O=C1C(O)=C([C@H]2CC[C@H](c3ccc(Cl)cc3)CC2)C(=O)c2ccccc21 [Atovaquone] | 0.17 | 0.9543 | 1.102 | – | 1.327 | 1.493 | – | – | Difference [2, 8]: 0.15
15 | Carbetapentane (citrate) | 0.39 | – | – | −0.21 | 0.8092 | 1.195 | 1.181 | 0.9736 | –
16 | Dabigatran etexilate (mesylate) | – | – | – | −0.23 | 1.092 | 0.9893 | 1.215 | 0.9831 | Difference [1, 21]: −0.10
17 | Cn1c(=O)c2[nH]cnc2n(C)c1=O [Aminophylline] | – | – | – | – | – | – | – | – | Cholesterol-free media + simvastatin (0.04 μM) [1, 9]: 0.918; Complete Media [1, 10]: 0.8588; Difference [1, 11]: −0.06; Difference [2, 12]: −0.14; Cholesterol-free [2, 13]: 0.9006; Complete [2, 14]: 0.7581
18 | COC(c1ccccc1)(c1ccccc1)[C@H](Oc1nc(C)cc(C)n1)C(=O)O [Ambrisentan] | 0.20 | – | – | – | 1.296 | 1.497 | – | – | Difference [2, 12]: −0.16; Cholesterol-free [2, 13]: 1.13; Complete [2, 14]: 0.9703
19 | O=c1[nH]c(=O)n([C@H]2C[C@H](O)[C@@H](CO)O2)cc1I [Idoxuridine] | – | 0.8751 | 1.387 | – | – | – | – | – | Cholesterol-free media + simvastatin (0.04 μM) [1, 26]: 1.124; Complete Media ([1]; drug in complete media): 0.9636; Difference [1, 21]: −0.16; Difference [2, 8]: 0.51
20 | CCS(=O)(=O)N1CC(CC#N)(n2cc(-c3ncnc4[nH]ccc34)cn2)C1 [Baricitinib] | – | – | – | −0.22 | – | – | 0.7863 | 0.5701 | Cholesterol-free media + simvastatin (0.04 μM) [1, 19]: 1.286; Complete Media [1, 20]: 0.9674; Difference [1, 21]: −0.32
21 | COc1nc2ccc(Br)cc2cc1[C@@H](c1ccccc1)[C@@](O)(CCN(C)C)c1cccc2ccccc12 [Bedaquiline] | 0.10 | 0.6087 | 1.472 | – | – | – | – | – | Cholesterol-free media + simvastatin (0.04 μM) [1, 3]: 1.492; Complete Media [1, 4]: 1.59; Difference [2, 8]: 0.86
22 | CCn1cc(C(=O)O)c(=O)c2cc(F)c(N3CCNCC3)nc21 [Enoxacin (hydrate)] | – | – | – | – | – | – | – | – | Cholesterol-free media + simvastatin (0.04 μM) [1, 9]: 1.166; Complete Media [1, 10]: 1.164; Difference [1, 11]: 0.00; Difference [2, 22]: −0.49; Cholesterol-free [2, 23]: 1.532; Complete [2, 24]: 1.045
23 | Nc1nc(NC2CC2)c2ncn([C@H]3C=C[C@@H](CO)C3)c2n1.Nc1nc(NC2CC2)c2ncn([C@H]3C=C[C@@H](CO)C3)c2n1.O=S(=O)(O)O [Abacavir (sulfate)] | 0.16 | 0.4233 | 0.4872 | 0.06 | 0.2456 | 0.4029 | – | – | –
